SMILES strings stand for the structures.

As usually defined, the Ki is the equilibrium dissociation constant of an inhibitor or competing ligand from its target.

The first experiment deals with human CNR2 receptors (CB2 receptor) (Homo sapiens (Human), UniProt P34972). In words: Radioligand binding assay, human CB2 (CNR2).
human CNR2 receptors (CB2 receptor), sequence (P34972 whole entry): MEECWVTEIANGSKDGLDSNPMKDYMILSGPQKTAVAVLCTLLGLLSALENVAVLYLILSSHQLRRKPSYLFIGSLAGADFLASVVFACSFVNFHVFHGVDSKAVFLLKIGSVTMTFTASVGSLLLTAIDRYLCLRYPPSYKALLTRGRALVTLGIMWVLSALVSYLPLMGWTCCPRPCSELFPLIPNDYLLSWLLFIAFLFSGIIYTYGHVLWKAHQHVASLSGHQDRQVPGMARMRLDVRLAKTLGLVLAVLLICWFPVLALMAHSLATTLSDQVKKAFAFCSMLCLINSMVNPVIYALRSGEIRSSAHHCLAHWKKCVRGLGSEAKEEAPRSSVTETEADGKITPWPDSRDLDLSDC
Settings: not given
The procedure:
Radioligand Binding Assay
The affinity of the compounds of the invention for cannabinoid CB1 receptors was determined using recommended amounts of membrane preparations (PerkinElmer) of human embryonic kidney (HEK) cells expressing the human CNR1 or CNR2 receptors in conjunction with 1.5 or 2.6 nM [3H]-CP-55,940 (Perkin Elmer) as radioligand, respectively. Binding was performed in binding buffer (50 mM Tris, 5 mM MgCl2, 2.5 mM EDTA, and 0.5% (wt/vol) fatty acid free BSA, pH 7.4 for CB1 receptor and 50 mM Tris, 5 mM MgCl2, 2.5 mM EGTA, and 0.1% (wt/vol) fatty acid free BSA, pH 7.4 for CB2 receptor) in a total volume of 0.2 ml for 1 h at 30° C. shaking. The reaction was terminated by rapid filtration through microfiltration plates coated with 0.5% polyethylenimine (UniFilter GFB filter plate; Packard). Bound radioactivity was analyzed for Ki using nonlinear regression analysis (Activity Base, ID Business Solution, Limited), with the Kd values for [3H]CP55,940 determined from saturation experiments. The compounds of formula (I) show an excellent affinity for the CB2 receptor.
The compounds according to formula (I) have an activity in the above assay (Ki) between 0.5 nM and 10 μM. Particular compounds of formula (I) have an activity in the above assay (Ki) between 0.5 nM and 3 μM. Other particular compounds of formula (I) have an activity in the above assay (Ki) between 0.5 nM and 100 nM.
On to `CCC(CC)(NC(=O)c1ccc(N2CC(O)C2)c(OC[C@H]2C[C@@H]2COCc2ccccc2)n1)C(=O)OCCCF` (racemic) [Example 22, (Rac)-trans-3-Fluoropropyl 2-[[6-[[-2-(benzyloxymethyl)cyclopropyl]methoxy]-5-(3-hydroxyazetidin-1-yl)pyridine-2-carbonyl]amino]-2-ethyl-butanoate], for which the Ki was determined as 0.755 µM.

Staying with this experiment, now noted: membranes of HEK cells expressing human CNR2, 2.6 nM [3H]-CP-55,940 radioligand; read-out: Binding assay human CB2 Ki.
On to `CCC(CC)(NC(=O)c1ccc(N2CC(F)C2)c(OC[C@H]2C[C@@H]2CO)n1)C(=O)OCCCF` (single isomer, unassigned) [Example 30, 3-Fluoropropyl 2-ethyl-2-{[5-(3-fluoroazetidin-1-yl)-6-{[(1S,2S)-2-(hydroxymethyl)cyclopropyl]methoxy}pyridin-2-yl]formamido}butanoate or 3-fluoropropyl 2-ethyl-2-{[5-(3-fluoroazetidin-1-yl)-6-{[(1R,2R)-2-(hydroxymethyl)cyclopropyl]methoxy}pyridin-2-yl]formamido}butanoate], for which the Ki turned out to be 0.0017 µM.

Consider `CCC(CC)(NC(=O)c1ccc(N2CC(OC)C2)c(OC[C@@H]2C[C@H]2CO)n1)C(=O)OCCF` [Example 14, (−)-trans-2-Fluoroethyl 2-ethyl-2-{[6-{[-2-(hydroxymethyl)cyclopropyl]methoxy}-5-(3-methoxyazetidin-1-yl)pyridine-2-carbonyl]amino}butanoate], for which the Ki amounted to 0.0114 µM.

Turning to `CCC(CC)(NC(=O)c1ccc(N2CCCC2)c(OCC2(CO)COC2)n1)C(=O)OCCCF` [Example 35, 3-Fluoropropyl 2-ethyl-2-(6-((3-(hydroxymethyl)oxetan-3-yl)methoxy)-5-(pyrrolidin-1-yl)picolinamido)butanoate], the Ki amounted to 1.39 µM.

As for `CCC(CC)(NC(=O)c1ccc(N2CCCC2)c(OCC2(CO)COC2)n1)C(=O)OCCF` [Example 34, 2-Fluoroethyl 2-ethyl-2-(6-((3-(hydroxymethyl)oxetan-3-yl)methoxy)-5-(pyrrolidin-1-yl)picolinamide)butanoate], the Ki is 0.607 µM.

For the compound `CCC(CC)(NC(=O)c1ccc(N2CC(OC)C2)c(OC[C@H]2C[C@@H]2CO)n1)C(=O)OCCF` (stereo in doubt) [Example 13, (+)-trans-2-Fluoroethyl 2-ethyl-2-{[6-{[-2-(hydroxymethyl)cyclopropyl]methoxy}-5-(3-methoxyazetidin-1-yl)pyridine-2-carbonyl]amino}butanoate], the Ki was determined as 0.0003 µM.

Regarding `CCC(CC)(NC(=O)c1ccc(N2CC(OC)C2)c(OC[C@H]2C[C@@H]2CO)n1)C(=O)OCCCF` [Example 15, 3-Fluoropropyl 2-ethyl-2-{[6-{[(1S,2S)-2-(hydroxymethyl)cyclopropyl]methoxy}-5-(3-methoxyazetidin-1-yl)pyridine-2-carbonyl]amino}butanoate], the inhibition constant (Ki) stood at 0.0007 µM.

Regarding `CCC(CC)(NC(=O)c1ccc(N2CC(F)C2)c(OC[C@@H]2C[C@H]2CO)n1)C(=O)N[C@H](CO)CC(C)C` (single isomer, unassigned) [Example 27, N-[1-Ethyl-1-[[(1S)-1-(hydroxymethyl)-3-methyl-butyl]carbamoyl]propyl]-5-(3-fluoroazetidin-1-yl)-6-[[(1R,2R)-2-(hydroxymethyl)cyclopropyl]methoxy]pyridine-2-carboxamide or N-[1-ethyl-1-[[(1S)-1-(hydroxymethyl)-3-methyl-butyl]carbamoyl]propyl]-5-(3-fluoroazetidin-1-yl)-6-[[(1S,2S)-2-(hydroxymethyl)cyclopropyl]methoxy]pyridine-2-carboxamide], the Ki stood at 4.15 µM.

In the case of `CCC(CC)(NC(=O)c1ccc(N2CC(OC)C2)c(OC[C@H]2C[C@@H]2CO)n1)C(=O)OCCCOS(=O)(=O)c1ccc(C)cc1` [Example 23, 3-(p-Tolylsulfonyloxy)propyl 2-ethyl-2-[[6-[[(1S,2S)-2-(hydroxymethyl)cyclopropyl]methoxy]-5-(3-methoxyazetidin-1-yl)pyridine-2-carbonyl]amino]butanoate], the Ki amounted to 0.0216 µM.

For `CCC(CC)(NC(=O)c1ccc(N2CC(OC)C2)c(OC[C@H]2C[C@@H]2CO)n1)C(=O)N[C@H](CO)CC(C)C` [Example 26, N-[1-Ethyl-1-[[(1S)-1-(hydroxymethyl)-3-methyl-butyl]carbamoyl]propyl]-6-[[(1S,2S)-2-(hydroxymethyl)cyclopropyl]methoxy]-5-(3-methoxyazetidin-1-yl)pyridine-2-carboxamide], the Ki was 0.13 µM.

With `CCOC(=O)C(CC)(CC)NC(=O)c1ccc(N2CC(OC)C2)c(OC[C@@H]2C[C@@H]2COCCF)n1` (mixture of isomers) [Example 6, Ethyl 2-ethyl-2-{[6-({(1R,2S)-2-[(2-fluoroethoxy)methyl]cyclopropyl}methoxy)-5-(3-methoxyazetidin-1-yl)pyridine-2-carbonyl]amino}butanoate and ethyl 2-ethyl-2-{[6-({(1S,2R)-2-[(2-fluoroethoxy)methyl]cyclopropyl}methoxy)-5-(3-methoxyazetidin-1-yl)pyridine-2-carbonyl]amino}butanoate], the Ki was determined as 0.013 µM.

For the compound `[2H]C([2H])(OC(=O)C(CC)(CC)NC(=O)c1ccc(N2CC(OC)C2)c(OC[C@H]2C[C@@H]2CO)n1)C([2H])([2H])C([2H])([2H])OS(=O)(=O)c1ccc(C)cc1` [Example 24, [1,1,2,2,3,3-Hexadeuterio-3-(p-tolylsulfonyloxy)propyl] 2-ethyl-2-[[6-[[(1S,2S)-2-(hydroxymethyl)cyclopropyl]methoxy]-5-(3-methoxyazetidin-1-yl)pyridine-2-carbonyl]amino]butanoate], the Ki is 0.0655 µM.

As to `CCOC(=O)C(CC)(CC)NC(=O)c1ccc(N2CC(OC)C2)c(OC[C@H]2C[C@@H]2COCF)n1` (stereo in doubt) [Example 9, (+)-trans-Ethyl 2-ethyl-2-{[6-({-2-[(fluoromethoxy)methyl]cyclopropyl}methoxy)-5-(3-methoxyazetidin-1-yl)pyridine-2-carbonyl]amino}butanoate], the Ki came out at 0.0002 µM.

As to `CCC(CC)(NC(=O)c1ccc(N2CC(F)C2)c(OC[C@@H]2C[C@H]2CO)n1)C(=O)OCCCF` (single isomer, unassigned) [Example 29, 3-Fluoropropyl 2-ethyl-2-{[5-(3-fluoroazetidin-1-yl)-6-{[(1R,2R)-2-(hydroxymethyl)cyclopropyl]methoxy}pyridin-2-yl]formamido}butanoate or 3-fluoropropyl 2-ethyl-2-{[5-(3-fluoroazetidin-1-yl)-6-{[(1S,2S)-2-(hydroxymethyl)cyclopropyl]methoxy}pyridin-2-yl]formamido}butanoate], the Ki worked out at 0.0109 µM.

Take `CCC(CC)(NC(=O)c1ccc(N2CC(OC)C2)c(OC[C@@H]2C[C@H]2CO)n1)C(=O)OCCCF` [Example 16, 3-Fluoropropyl 2-ethyl-2-{[6-{[(1R,2R)-2-(hydroxymethyl)cyclopropyl]methoxy}-5-(3-methoxyazetidin-1-yl)pyridine-2-carbonyl]amino}butanoate]: the Ki amounted to 0.0188 µM.

Take `CCC(CC)(NC(=O)c1ccc(N2CCCC2)c(OCC2(CO)COC2)n1)C(=O)OCF` [Example 33, Fluoromethyl 2-ethyl-2-[[6-[[3-(hydroxymethyl)oxetan-3-yl]methoxy]-5-pyrrolidin-1-yl-pyridine-2-carbonyl]amino]butanoate]: the Ki was found to be 0.348 µM.

Values taken from patent publication US11655243B2, “Pyridine and pyrazine derivatives as preferential cannabinoid 2 agonists” (HOFFMANN-LA ROCHE INC., priority 2018, dated 2023).
